From ChEMBL document CHEMBL3885881, “DrugMatrix”

Species on record: Rattus norvegicus
Assay: DrugMatrix - Regimen: Daily Repeat
Assay type: toxicity, organism-based, Sprague-Dawley
Set-up: regimen Daily Repeat, gender Male, age 6-8 weeks
Settings: in vivo, po, route oral GAVAGE, vehicle .5 % CMC; for BASOPHIL / EOSINOPHIL / ERYTHROCYTE COUNT / HEMATOCRIT / HEMOGLOBIN / LEUKOCYTE COUNT / LYMPHOCYTE / MEAN CORPUSCULAR HEMOGLOBIN / MEAN CORPUSCULAR HEMOGLOBIN CONCENTRATION / MEAN CORPUSCULAR VOLUME / MONOCYTE / NEUTROPHIL / PLATELET COUNT: tissue Blood; for ALANINE AMINOTRANSFERASE / ALBUMIN / ALKALINE PHOSPHATASE / ASPARTATE AMINOTRANSFERASE / BLOOD UREA NITROGEN / CHLORIDE / CHOLESTEROL / CREATINE PHOSPHOKINASE / CREATININE / GLUCOSE / PHOSPHORUS / POTASSIUM / SODIUM / TOTAL PROTEIN: tissue Plasma
[1] = 0 mg/kg, 72 h, dose level Control, time 3 day
[2] = 0 mg/kg, 120 h, dose level Control, time 5 day
[3] = 80 mg/kg, 72 h, dose level Low, time 3 day
[4] = 80 mg/kg, 120 h, dose level Low, time 5 day
[5] = 2000 mg/kg, 72 h, dose level High, time 3 day
[6] = 2000 mg/kg, 120 h, dose level High, time 5 day

For `CN(C/C=C/C#CC(C)(C)C)Cc1cccc2ccccc12` [TERBINAFINE], the BASOPHIL [1] was 0%, the EOSINOPHIL [1] was 0.4% and the “ERYTHROCYTE COUNT” value [1] was 6.43 x10E6/uL. The HEMATOCRIT [1] was 37.36%, the HEMOGLOBIN [1] was 13.98 G/DL and the “LEUKOCYTE COUNT” value [1] was 13 x10E3/uL. For the same compound, the LYMPHOCYTE [1] was 81.4%, the “MEAN CORPUSCULAR HEMOGLOBIN” value [1] was 21.9 pg and the “MEAN CORPUSCULAR HEMOGLOBIN CONCENTRATION” value [1] was 37.4 G/DL. The “MEAN CORPUSCULAR VOLUME” value [1] was 58.52 fL, the MONOCYTE [1] was 0.4% and the NEUTROPHIL [1] was 18%. The “PLATELET COUNT” value [1] was 1386 x10E3/uL, the “ALANINE AMINOTRANSFERASE” value [1] was 39.33 u/L and the ALBUMIN [1] was 3.57 G/DL. For the same compound, the “ALKALINE PHOSPHATASE” value [1] was 283.83 u/L, the “ASPARTATE AMINOTRANSFERASE” value [1] was 69.5 u/L and the “BLOOD UREA NITROGEN” value [1] was 14.83 mg/dL. The CHLORIDE [1] was 107.33 MEQ/L, the CHOLESTEROL [1] was 75.17 mg/dL and the “CREATINE PHOSPHOKINASE” value [1] was 107.67 u/L. The CREATININE [1] was 0.48 mg/dL, the GLUCOSE [1] was 172.5 mg/dL and the PHOSPHORUS [1] was 10.48 mg/dL. The POTASSIUM [1] was 6.9 MEQ/L, the SODIUM [1] was 152.33 MEQ/L and the “TOTAL PROTEIN” value [1] was 5.9 G/DL. For the same compound, the BASOPHIL [2] was 0%, the EOSINOPHIL [2] was 0.4% and the “ERYTHROCYTE COUNT” value [2] was 6.96 x10E6/uL. The HEMATOCRIT [2] was 41.12%, the HEMOGLOBIN [2] was 15.24 G/DL and the “LEUKOCYTE COUNT” value [2] was 11.06 x10E3/uL. For the same compound, the LYMPHOCYTE [2] was 88.6%, the “MEAN CORPUSCULAR HEMOGLOBIN” value [2] was 21.96 pg and the “MEAN CORPUSCULAR HEMOGLOBIN CONCENTRATION” value [2] was 37.1 G/DL. For the same compound, the “MEAN CORPUSCULAR VOLUME” value [2] was 59.12 fL, the MONOCYTE [2] was 0.2% and the NEUTROPHIL [2] was 10.8%. The “PLATELET COUNT” value [2] was 1155.8 x10E3/uL, the “ALANINE AMINOTRANSFERASE” value [2] was 36.33 u/L and the ALBUMIN [2] was 3.72 G/DL. The “ALKALINE PHOSPHATASE” value [2] was 340.33 u/L, the “ASPARTATE AMINOTRANSFERASE” value [2] was 68.33 u/L and the “BLOOD UREA NITROGEN” value [2] was 15 mg/dL. The CHLORIDE [2] was 108.17 MEQ/L, the CHOLESTEROL [2] was 74.67 mg/dL and the “CREATINE PHOSPHOKINASE” value [2] was 110.67 u/L. The CREATININE [2] was 0.47 mg/dL, the GLUCOSE [2] was 171.33 mg/dL and the PHOSPHORUS [2] was 10.05 mg/dL. The POTASSIUM [2] was 6.7 MEQ/L, the SODIUM [2] was 155.5 MEQ/L and the “TOTAL PROTEIN” value [2] was 6.33 G/DL. For the same compound, the BASOPHIL [3] was 0%, the EOSINOPHIL [3] was 0.33% and the “ERYTHROCYTE COUNT” value [3] was 6.8 x10E6/uL. For the same compound, the HEMATOCRIT [3] was 41.03%, the HEMOGLOBIN [3] was 15.13 G/DL and the “LEUKOCYTE COUNT” value [3] was 14.73 x10E3/uL. The LYMPHOCYTE [3] was 86.67%, the “MEAN CORPUSCULAR HEMOGLOBIN” value [3] was 22.37 pg and the “MEAN CORPUSCULAR HEMOGLOBIN CONCENTRATION” value [3] was 36.9 G/DL. The “MEAN CORPUSCULAR VOLUME” value [3] was 60.57 fL, the MONOCYTE [3] was 0.33% and the NEUTROPHIL [3] was 12.67%. The “PLATELET COUNT” value [3] was 1306.67 x10E3/uL, the “ALANINE AMINOTRANSFERASE” value [3] was 36 u/L and the ALBUMIN [3] was 3.5 G/DL. For the same compound, the “ALKALINE PHOSPHATASE” value [3] was 332 u/L, the “ASPARTATE AMINOTRANSFERASE” value [3] was 55.67 u/L and the “BLOOD UREA NITROGEN” value [3] was 12.67 mg/dL. The CHLORIDE [3] was 110.33 MEQ/L, the CHOLESTEROL [3] was 64 mg/dL and the “CREATINE PHOSPHOKINASE” value [3] was 119.33 u/L. It also gave a CREATININE [3] of 0.57 mg/dL, a GLUCOSE [3] of 180.67 mg/dL and a PHOSPHORUS [3] of 10.6 mg/dL. The POTASSIUM [3] was 7.07 MEQ/L, the SODIUM [3] was 155.67 MEQ/L and the “TOTAL PROTEIN” value [3] was 5.87 G/DL. For the same compound, the BASOPHIL [4] was 0%, the EOSINOPHIL [4] was 0.33% and the “ERYTHROCYTE COUNT” value [4] was 5.98 x10E6/uL. For the same compound, the HEMATOCRIT [4] was 35.23%, the HEMOGLOBIN [4] was 12.83 G/DL and the “LEUKOCYTE COUNT” value [4] was 13.7 x10E3/uL. For the same compound, the LYMPHOCYTE [4] was 85.33%, the “MEAN CORPUSCULAR HEMOGLOBIN” value [4] was 21.47 pg and the “MEAN CORPUSCULAR HEMOGLOBIN CONCENTRATION” value [4] was 36.4 G/DL. The “MEAN CORPUSCULAR VOLUME” value [4] was 58.97 fL, the MONOCYTE [4] was 0% and the NEUTROPHIL [4] was 14%. The “PLATELET COUNT” value [4] was 1155 x10E3/uL, the “ALANINE AMINOTRANSFERASE” value [4] was 39 u/L and the ALBUMIN [4] was 3.43 G/DL. The “ALKALINE PHOSPHATASE” value [4] was 357.33 u/L, the “ASPARTATE AMINOTRANSFERASE” value [4] was 60.33 u/L and the “BLOOD UREA NITROGEN” value [4] was 13.33 mg/dL. For the same compound, the CHLORIDE [4] was 106.67 MEQ/L, the CHOLESTEROL [4] was 67.33 mg/dL and the “CREATINE PHOSPHOKINASE” value [4] was 121.67 u/L. For the same compound, the CREATININE [4] was 0.47 mg/dL, the GLUCOSE [4] was 151.33 mg/dL and the PHOSPHORUS [4] was 9.77 mg/dL. The POTASSIUM [4] was 6.7 MEQ/L, the SODIUM [4] was 151.33 MEQ/L and the “TOTAL PROTEIN” value [4] was 5.73 G/DL. The BASOPHIL [5] was 0%, the EOSINOPHIL [5] was 0% and the “ERYTHROCYTE COUNT” value [5] was 6.96 x10E6/uL. For the same compound, the HEMATOCRIT [5] was 41.1%, the HEMOGLOBIN [5] was 15.27 G/DL and the “LEUKOCYTE COUNT” value [5] was 8.67 x10E3/uL. For the same compound, the LYMPHOCYTE [5] was 76.67%, the “MEAN CORPUSCULAR HEMOGLOBIN” value [5] was 21.9 pg and the “MEAN CORPUSCULAR HEMOGLOBIN CONCENTRATION” value [5] was 37.13 G/DL. The “MEAN CORPUSCULAR VOLUME” value [5] was 58.93 fL, the MONOCYTE [5] was 0% and the NEUTROPHIL [5] was 23.33%. The “PLATELET COUNT” value [5] was 1235.33 x10E3/uL, the “ALANINE AMINOTRANSFERASE” value [5] was 55.67 u/L and the ALBUMIN [5] was 3.63 G/DL. The “ALKALINE PHOSPHATASE” value [5] was 246.33 u/L, the “ASPARTATE AMINOTRANSFERASE” value [5] was 120.33 u/L and the “BLOOD UREA NITROGEN” value [5] was 11.33 mg/dL. For the same compound, the CHLORIDE [5] was 108.67 MEQ/L, the CHOLESTEROL [5] was 105.33 mg/dL and the “CREATINE PHOSPHOKINASE” value [5] was 122 u/L. It also gave a CREATININE [5] of 0.5 mg/dL, a GLUCOSE [5] of 140.67 mg/dL and a PHOSPHORUS [5] of 10.4 mg/dL. For the same compound, the POTASSIUM [5] was 6.3 MEQ/L, the SODIUM [5] was 156.33 MEQ/L and the “TOTAL PROTEIN” value [5] was 5.9 G/DL. The BASOPHIL [6] was 0%, the EOSINOPHIL [6] was 0.33% and the “ERYTHROCYTE COUNT” value [6] was 6.14 x10E6/uL. For the same compound, the HEMATOCRIT [6] was 37.1%, the HEMOGLOBIN [6] was 13.7 G/DL and the “LEUKOCYTE COUNT” value [6] was 6.8 x10E3/uL. For the same compound, the LYMPHOCYTE [6] was 87.33%, the “MEAN CORPUSCULAR HEMOGLOBIN” value [6] was 22.37 pg and the “MEAN CORPUSCULAR HEMOGLOBIN CONCENTRATION” value [6] was 36.9 G/DL. The “MEAN CORPUSCULAR VOLUME” value [6] was 60.57 fL, the MONOCYTE [6] was 0% and the NEUTROPHIL [6] was 12.33%. The “PLATELET COUNT” value [6] was 1319.67 x10E3/uL, the “ALANINE AMINOTRANSFERASE” value [6] was 37.67 u/L and the ALBUMIN [6] was 3.6 G/DL. For the same compound, the “ALKALINE PHOSPHATASE” value [6] was 327.67 u/L, the “ASPARTATE AMINOTRANSFERASE” value [6] was 56 u/L and the “BLOOD UREA NITROGEN” value [6] was 12 mg/dL. The CHLORIDE [6] was 106.33 MEQ/L, the CHOLESTEROL [6] was 84.67 mg/dL and the “CREATINE PHOSPHOKINASE” value [6] was 117.33 u/L. It also gave a CREATININE [6] of 0.53 mg/dL, a GLUCOSE [6] of 141 mg/dL and a PHOSPHORUS [6] of 10.63 mg/dL. The POTASSIUM [6] was 6.4 MEQ/L, the SODIUM [6] was 152 MEQ/L and the “TOTAL PROTEIN” value [6] was 5.73 G/DL.
